In US20240376056A1, “PHENYL ACETAMIDE BASED IL-17A MODULATORS AND USES THEREOF” (DiCE Alpha, Inc., priority 2021, published 2024):

The compounds below were run against T1, IL-17A/A (Homo sapiens, UniProt Q16552) (assay: HEK-Blue IL-17A/A inhibition assay (SEAP reporter)). Details: HEK-Blue cells (HEK 293 expressing IL-17RA, IL-17RC, Act1); IL-17A/A stimulation; 20 hours; SEAP read at A630; 4-parameter fit.
T1 construct: purchased Genscript Z03228
T1 sequence (Q16552 24-155): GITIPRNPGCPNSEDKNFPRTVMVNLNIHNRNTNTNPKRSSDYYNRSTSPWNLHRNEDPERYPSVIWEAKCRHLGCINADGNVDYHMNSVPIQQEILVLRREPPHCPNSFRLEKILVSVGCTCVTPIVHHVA
Type: cell-based
Experimental: The HEK-Blue #NC108637 […]. Cells were grown and prepared for assays according to the manufacturer's instructions. This cell line consists of HEK 293 cells that were designed to expressed IL-17R^A, IL-17RC, and the ActI adapter molecule, the combination of which. when stimulated by IL-17A/A activates a NFtcB promoter and drives expression of a recombinant Secreted Alkaline Phosphatase (SEAP) geneprotein. Media from the cells is then added to a development reagent (Quanti-Blue Substrate, Fisher #NC971 1613), and read at A630.
Compounds were titrated in DMSO. with a top final compound concentration of 10 uM, 1 uM, or 0.3 uM, and added to the cells immediately before adding IL-17A/A (Genscript #Z03228). The cells, compound, and IL-17A/A were then incubated for 20 hours before media was removed for SEAP analysis. The resulting inhibition curve was then analyzed using Graphpad Prism 7.0, and IC50 values were determined using a 4-parameter nonlinear fit. DMSO was added to a universal final concentration of 0.1% to optimze background.
In the case of `C=Cc1cc(NC(=O)[C@@H](NC(=O)c2ccnn2C(C)C)C(C2CC2)C2CC2)c(F)cc1C(C)C(=O)NCC(F)(F)F` (mixture of isomers) [Compound 110, N-((2S)-1,1-dicyclopropyl-3-((2-fluoro-4-(1-oxo-1-((2,2,2-trifluoroethyl)amino)propan-2-yl)-5-vinylphenyl)amino)-3-oxopropan-2-yl)-1-isopropyl-1H-pyrazole-5-carboxamide], the IC50 is reported as < 100 nM.
For `CC(C(=O)NCC(F)(F)F)c1cc(F)c(NC(=O)[C@@H](NC(=O)c2ccnn2C(C)C)C(C2CC2)C2CC2)cc1Br` (mixture of isomers) [Compound 113, N-((2S)-1-((5-bromo-2-fluoro-4-(1-oxo-1-((2,2,2-trifluoroethyl)amino)propan-2-yl)phenyl)amino)-3,3-dicyclopropyl-1-oxopropan-2-yl)-1-isopropyl-1H-pyrazole-5-carboxamide], the IC50 was 100 to 1000 nM.
`CCn1nccc1C(=O)N[C@H](C(=O)Nc1ccc([C@@H](C)C(=O)N(C)CC(F)(F)F)cc1F)C1CCCCCC1` (single isomer, unassigned) [Compound 3] showed an IC50 of 100 to 1000 nM.
In the case of `CCn1nccc1C(=O)N[C@H](C(=O)Nc1ccc([C@H](C)C(=O)N(C)CC(F)(F)F)cc1F)C1CCCCCC1` (single isomer, unassigned) [Compound 4], the IC50 is reported as < 100 nM.
With `CC(C)n1nccc1C(=O)N[C@H](C(=O)Nc1ccc([C@H](C)C(=O)N2CCOCC2C(F)(F)F)cc1F)C(C1CC1)C1CC1` (single isomer, unassigned) [Compound 18] the IC50 was < 100 nM.
Compound `CC(C)n1nccc1C(=O)N[C@H](C(=O)Nc1ccc([C@H](C)C(=O)N2CCOCC2C(F)(F)F)cc1F)C(C1CC1)C1CC1` (single isomer, unassigned) [Compound 19] has an IC50 of 100 to 1000 nM.
In the case of `CC(C)n1nccc1C(=O)N[C@H](C(=O)Nc1ccc([C@H](C)C(=O)N2CCCCC2C(F)(F)F)cc1F)C(C1CC1)C1CC1` (single isomer, unassigned) [Compound 20], the IC50 is reported as 100 to 1000 nM.
`CC(C)n1nccc1C(=O)N[C@H](C(=O)Nc1ccc([C@H](C)C(=O)N2CCCCC2C(F)(F)F)cc1F)C(C1CC1)C1CC1` (single isomer, unassigned) [Compound 21] gave an IC50 of 100 to 1000 nM.
For `CC(C)n1nccc1C(=O)N[C@H](C(=O)Nc1ccc([C@H](C)C(=O)NC(CO)C(F)(F)F)cc1F)C(C1CC1)C1CC1` (single isomer, unassigned) [Compound 28], the IC50 was 100 to 1000 nM.
`CC(C)n1nccc1C(=O)N[C@H](C(=O)Nc1ccc([C@H](C)C(=O)NC(CO)C(F)(F)F)cc1F)C(C1CC1)C1CC1` (single isomer, unassigned) [Compound 29] was tested, and the IC50 was < 100 nM.
`CC(C)n1nccc1C(=O)N[C@H](C(=O)Nc1ccc([C@H](C)C(=O)N2CCOC2C(F)(F)F)cc1F)C(C1CC1)C1CC1` (single isomer, unassigned) [Compound 48] showed an IC50 of 100 to 1000 nM.
Work on `CC(C)n1nccc1C(=O)N[C@H](C(=O)Nc1ccc([C@H](C)C(=O)N2CCOC2C(F)(F)F)cc1F)C(C1CC1)C1CC1` (single isomer, unassigned) [Compound 49] yielded an IC50 of 100 to 1000 nM.
In the case of `CCN(CC(F)(F)F)C(=O)C(C)c1ccc(NC(=O)[C@@H](NC(=O)c2ccnn2CC)C2CCCCCC2)c(F)c1` (single isomer, unassigned) [Compound 69], the IC50 is reported as > 1000 nM.
`CCN(CC(F)(F)F)C(=O)C(C)c1ccc(NC(=O)[C@@H](NC(=O)c2ccnn2CC)C2CCCCCC2)c(F)c1` (single isomer, unassigned) [Compound 70] gave an IC50 of 100 to 1000 nM.
In the case of `CCn1nccc1C(=O)N[C@H](C(=O)Nc1cc(C)c(C(C)C(=O)N(C)CC(F)(F)F)cc1F)C(C1CC1)C1CC1` (single isomer, unassigned) [Compound 76], the IC50 is reported as < 100 nM.
In the case of `CCn1nccc1C(=O)N[C@H](C(=O)Nc1cc(C)c(C(C)C(=O)N(C)CC(F)(F)F)cc1F)C(C1CC1)C1CC1` (single isomer, unassigned) [Compound 77], the IC50 is reported as 100 to 1000 nM.
`CCC(C1CCC1)[C@H](NC(=O)c1ccnn1CC)C(=O)Nc1ccc([C@H](C)C(=O)NCC(F)(F)F)cc1F` (single isomer, unassigned) [Compound 86] showed an IC50 of 100 to 1000 nM.
For `CCC(C1CCC1)[C@H](NC(=O)c1ccnn1CC)C(=O)Nc1ccc([C@H](C)C(=O)NCC(F)(F)F)cc1F` (single isomer, unassigned) [Compound 87], the IC50 was 100 to 1000 nM.
In the case of `CC(CN1CCOCC1)n1nccc1C(=O)N[C@H](C(=O)Nc1ccc([C@H](C)C(=O)NCC(F)(F)F)cc1F)C(C1CC1)C1CC1` (single isomer, unassigned) [Compound 92], the IC50 is reported as 100 to 1000 nM.
For `CC(CN1CCOCC1)n1nccc1C(=O)N[C@H](C(=O)Nc1ccc([C@H](C)C(=O)NCC(F)(F)F)cc1F)C(C1CC1)C1CC1` (single isomer, unassigned) [Compound 93], the IC50 was 100 to 1000 nM.
With `C[C@H](C(=O)NCC(F)(F)F)c1ccc(NC(=O)[C@@H](NC(=O)c2ccnn2C2CCCNC2)C(C2CC2)C2CC2)c(F)c1` (single isomer, unassigned) [Compound 96] the IC50 was > 1000 nM.
In the case of `C[C@H](C(=O)NCC(F)(F)F)c1ccc(NC(=O)[C@@H](NC(=O)c2ccnn2C2CCCNC2)C(C2CC2)C2CC2)c(F)c1` (single isomer, unassigned) [Compound 97], the IC50 is reported as > 1000 nM.
In the case of `Cc1cc(NC(=O)[C@@H](NC(=O)c2ccnn2C(C)C)C(C2CC2)C2CC2)c(F)cc1[C@H](C)C(=O)NCC(F)(F)F` (single isomer, unassigned) [Compound 98], the IC50 is reported as < 100 nM.
With `Cc1cc(NC(=O)[C@@H](NC(=O)c2ccnn2C(C)C)C(C2CC2)C2CC2)c(F)cc1[C@@H](C)C(=O)NCC(F)(F)F` (single isomer, unassigned) [Compound 99] the IC50 was > 1000 nM.
For `CCn1nccc1C(=O)N[C@H](C(=O)Nc1ccc(C(COC)C(=O)N(C)CC(F)(F)F)cc1F)C1CCCCCC1` (single isomer, unassigned) [Compound 102, N—((I S)-1-cycloheptyl-2-((2-fluoro-4-(3-methoxy-1-(methyl(2,2,2-trifluoroethyl)amino)-1-oxopropan-2-yl)phenyl)amino)-2-oxoethyl)-1-ethyl-1H-pyrazole-5-carboxamide], the IC50 was > 1000 nM.
For `CCn1nccc1C(=O)N[C@H](C(=O)Nc1ccc(C(COC)C(=O)N(C)CC(F)(F)F)cc1F)C1CCCCCC1` (single isomer, unassigned) [Compound 103], the IC50 was < 100 nM.
With `COCC(C(=O)NCC(F)(F)F)c1ccc(NC(=O)[C@@H](NC(=O)c2ccnn2C(C)C)C(C2CC2)C2CC2)c(F)c1` (single isomer, unassigned) [Compound 104] the IC50 was > 1000 nM.
With `COCC(C(=O)NCC(F)(F)F)c1ccc(NC(=O)[C@@H](NC(=O)c2ccnn2C(C)C)C(C2CC2)C2CC2)c(F)c1` (single isomer, unassigned) [Compound 105] the IC50 was < 100 nM.
With `CC(C(=O)NCC(F)(F)F)c1cc(F)c(NC(=O)[C@@H](NC(=O)c2ccnn2C(C)C)C(C2CC2)C2CC2)cc1Cl` (single isomer, unassigned) [Compound 108] the IC50 was 100 to 1000 nM.
For `CC(C(=O)NCC(F)(F)F)c1cc(F)c(NC(=O)[C@@H](NC(=O)c2ccnn2C(C)C)C(C2CC2)C2CC2)cc1Cl` (single isomer, unassigned) [Compound 109], the IC50 was 100 to 1000 nM.
For `CC(C(=O)NCC(F)(F)F)c1cc(F)c(NC(=O)[C@@H](NC(=O)c2ccnn2C(C)C)C(C2CC2)C2CC2)cc1C#N` (single isomer, unassigned) [Compound 115], the IC50 was 100 to 1000 nM.
`CC(C(=O)NCC(F)(F)F)c1cc(F)c(NC(=O)[C@@H](NC(=O)c2ccnn2C(C)C)C(C2CC2)C2CC2)cc1C(N)=O` (single isomer, unassigned) [Compound 116] was tested, and the IC50 was > 1000 nM.
Compound `CC(C(=O)NCC(F)(F)F)c1cc(F)c(NC(=O)[C@@H](NC(=O)c2ccnn2C(C)C)C(C2CC2)C2CC2)cc1C(N)=O` (single isomer, unassigned) [Compound 117] has an IC50 of 100 to 1000 nM.
`CC(C(=O)NCC(F)(F)F)c1cc(F)c(NC(=O)[C@@H](NC(=O)c2ccnn2C(C)C)C(C2CC2)C2CC2)cc1C#N` (single isomer, unassigned) [Compound 118] was tested, and the IC50 was > 1000 nM.
In the case of `CC(C(=O)NCC(F)(F)F)c1cc(F)c(NC(=O)[C@@H](NC(=O)c2ccnn2C(C)C)C(C2CC2)C2CC2)cc1C(F)(F)F` (single isomer, unassigned) [Compound 120], the IC50 is reported as < 100 nM.
In the case of `CC(C(=O)NCC(F)(F)F)c1cc(F)c(NC(=O)[C@@H](NC(=O)c2ccnn2C(C)C)C(C2CC2)C2CC2)cc1C(F)(F)F` (single isomer, unassigned) [Compound 121], the IC50 is reported as > 1000 nM.
In the case of `COc1cc(NC(=O)[C@@H](NC(=O)c2ccnn2C(C)C)C(C2CC2)C2CC2)c(F)cc1C(C)C(=O)NCC(F)(F)F` (single isomer, unassigned) [Compound 122], the IC50 is reported as > 1000 nM.
`COc1cc(NC(=O)[C@@H](NC(=O)c2ccnn2C(C)C)C(C2CC2)C2CC2)c(F)cc1C(C)C(=O)NCC(F)(F)F` (single isomer, unassigned) [Compound 123] was tested, and the IC50 was < 100 nM.
`COCc1cc(NC(=O)[C@@H](NC(=O)c2ccnn2C(C)C)C(C2CC2)C2CC2)c(F)cc1C(C)C(=O)NCC(F)(F)F` (single isomer, unassigned) [Compound 124] was tested, and the IC50 was < 100 nM.
With `COCc1cc(NC(=O)[C@@H](NC(=O)c2ccnn2C(C)C)C(C2CC2)C2CC2)c(F)cc1C(C)C(=O)NCC(F)(F)F` (single isomer, unassigned) [Compound 125] the IC50 was > 1000 nM.
